Results reported in patent US11008325B2, “Inhibitors of cancer invasion, attachment, and/or metastasis” (VIRGINIA COMMONWEALTH UNIVERSITY, priority 2016, dated 2021).
“Also recorded” adds a separate entry of the source.

How the values were obtained:
[1] = test system: U87 cells; assay: trans-well Matrigel invasion assay; assay type: cell-based, human
Method: FIGS. 7A-7B. FIG. 7A. Im-PHFA, primary immortal human fetal astrocyte cells were infected with an MDA-9/Syntenin expression plasmid carrying adenovirus. 48 hrs post-infection both the control and MDA-9/Syntenin overexpressing cells were treated with DMSO or PDZ1i followed by seeding in a trans-well Matrigel invasion assay and stained after 24 hrs. FIG. 7B. T98G and U87 were treated with DMSO or PDZ1i and seeding in a trans-well Matrigel invasion assay and stained after 24 hrs. Invasion was quantified from 4 random fields. Data represents fold changes and average±S.D.
FIGS. 8A-8D. PDZ1i produces similar effects to mda-9/syntenin knockdown post-radiation. FIG. 8A. ImPHFA and U87 cells were treated with 50 μM PDZ1i 2 h prior to radiation and analyzed for colony formation after 14 d. […] U87 cells were treated with 50 μM PDZ1i 2 h prior to radiation and analyzed via MTT assay after 24 h. […] Invasion was quantified from 5 random fields in FIG. 8D. […]
Invasion was measured using 24-well BioCoat cell culture inserts (BD Biosciences, Bedford, Mass.) with an 8-μm-porosity polyethylene terephthalate membrane coated with Matrigel Basement Membrane Matrix (100 μg/cm^2). […] Cells remaining on the upper surface of the filters were removed by wiping with a cotton swab, and invasion was determined by counting the cells that migrated to the lower side of the filter using at least 5 fields per insert at 100× magnification. […]

[2] = test system: cancer cells; assay: toxicity to cultured cells; assay type: cell-based, human
[3] = test system: melanocytes; assay: toxicity to melanocytes; assay type: cell-based; details: tested up to 100 μM
[4] = test system: RWPE-1 cells overexpressing mda-9; assay: modified Boyden Chamber invasion assay; assay type: cell-based, human
Method: (§1) FIGS. 17A-17H. Effect of PDZ1i on invasion, MDA-9/IGF-R1 interaction and IGF-R1, STAT3 and SRC phosphorylation. FIG. 17A) Different cancer cells (25,000 cells/well) from various anatomic origins were pre-treated with either DMSO (vehicle) or PDZ1i (dose as indicated) and invasion ability was assayed using modified Boyden Chamber according to the manufacturer's instructions. Photomicrographs were taken at 10× magnification and quantification of the results of three independent experiments is provided in the graphs. The data presents mean±S.D. B) The designated cells were treated with DMSO or PDZ1i and invasion properties were determined using a modified Boyden Chamber assay (BD bioscience). RWPE-1 mda-9: mda-9 transiently overexpressing cell line. […] FIG. 17E) Cells were growth starved for 24 h and treated with either DMSO or PDZ1i (dose indicated in μM) for 6 h. Cells were treated with human recombinant IGFBP-2 (hIGFBP-2, 10 ng/ml) for 2 h, lysates were prepared and western blot analysis was conducted with specific antibodies. […] Cells were treated with human recombinant IL-6 (hIGFBP-2, 1 ng/ml) for 2 h, cell lysates were prepared and analyzed by western blotting. […]
(§2) Boyden chamber assays were done to investigate the invasive properties of cancer cells^26, 27. […] After 18 h, invasive cells were photographed and analyzed.

[5] = test system: HCC-driven tumor xenograft; assay: HCC tumor xenograft, alone or with sorafenib; assay type: in vivo, athymic nude mice; details: in combination with sorafenib, I.P.
Method: FIGS. 48A-48C. Biological effects of PDZ1i in vivo in melanoma, HCC and PC. FIG. 48A) Compounds were administered I.P. 6 times within first two weeks following inoculation (I.V. injection) of B16 cells in C57BL/6 mice to evaluate the anti-metastatic efficacy. FIG. 48B) HCC-driven tumor xenograft was established in athymic nude mice. Compound alone or in combination with Sorafenib were given through I.P. Tumor volumes were considered as an end point of this study. FIG. 48C) Hi-Myc, a mouse model for spontaneous prostate cancer either received the compound or vehicle at the age of 8 weeks (immediate after onset of disease) for total 9 injections (3/week). After 16 weeks from the first injection, prostate were collected and pathologically evaluated. Representative photomicrographs (Left panel) and H and E stained slides (Right panel) from prostate were presented.

[6] = test system: various types of cancer cells including PC; assay: modified Boyden Chamber invasion assay; assay type: cell-based, human; details: pre-treatment, dose as indicated (20 μM or 40 μM)
Method: as §1, §2

With `Cc1cc(NC(=O)c2nc3[nH]c4c(c(=O)n3n2)CCC4)c(C)cc1NC(=O)CCc1nnc(-c2ccccc2)o1` [113B7, N-(2,5-dimethyl-4-(3-(5-phenyl-1,3,4-oxadiazol-2-yl)propanamido)phenyl)-8-oxo-5,6,7,8-tetrahydro-4H-cyclopenta[d][1,2,4]triazolo[1,5-a]pyrimidine-2-carboxamide] the radiation-induced invasion gains ([1]; 50 μM PDZ1i 2 h prior to 2 and 5 Gy) was “abolished these invasion gains”, the invasion ([1]; PDZ1i versus DMSO) was “effectively inhibited invasion” and the “toxicity to primary normal cells and cancer cells” value [2] was “non-toxic”. For the same compound, the toxicity ([2]; tested at 50 μM) was “did not show any toxicity”, the cytotoxicity ([2]; tested up to 20 μM) was “did not show any significant cytotoxicity” and the toxicity to melanocytes [3] was “did not show any significant toxicity”. For the same compound, the mda-9-mediated invasion [4] was “significantly attenuated”, the HCC tumor growth [5] was “synergistically inhibited HCC growth; also recorded: inhibit HCC tumor growth” and the invasion [6] was “inhibited invasion in a dose-dependent manner; also recorded: significantly inhibited the invasion”. The invasion ([6]; listed as PDZ1i) was “significantly inhibited the invasion”.
